According to ChEMBL document CHEMBL1142214, “Synergistic interaction between phenothiazines and antimicrobial agents against Burkholderia pseudomallei” (2007):
In brackets after ≈: the same amount, converted by molar mass. Activity calls are given as the source filed them. The calls are words filed in the database; no cut-off is given here.

Tests used:
[1] = tested on: Burkholderia pseudomallei; assay: Antimicrobial activity against Burkholderia pseudomallei KHW in presence of 15.6 uM omeprazole; format: functional
[2] = tested on: Burkholderia pseudomallei; assay: Antimicrobial activity against Burkholderia pseudomallei KHW in presence of 31.3 uM prochlorperazine; format: functional
[3] = tested on: Burkholderia pseudomallei; assay: Antimicrobial activity against Burkholderia pseudomallei KHW in presence of 15.6 uM prochlorperazine; format: functional
[4] = tested on: Burkholderia pseudomallei; assay: Antimicrobial activity against Burkholderia pseudomallei KHW in presence of 7.8 uM prochlorperazine; format: functional
[5] = tested on: Burkholderia pseudomallei; assay: Antimicrobial activity against Burkholderia pseudomallei KHW in presence of 3.9 uM prochlorperazine; format: functional
[6] = tested on: Burkholderia pseudomallei; assay: Antimicrobial activity against Burkholderia pseudomallei KHW in presence of 1000 uM promazine; format: functional
[7] = tested on: Burkholderia pseudomallei; assay: Antimicrobial activity against Burkholderia pseudomallei KHW in presence of 250 uM promazine; format: functional
[8] = tested on: Burkholderia pseudomallei; assay: Antimicrobial activity against Burkholderia pseudomallei KHW in presence of 125 uM promazine; format: functional
[9] = tested on: Burkholderia pseudomallei; assay: Antimicrobial activity against Burkholderia pseudomallei KHW in presence of 62.5 uM promazine; format: functional
[10] = tested on: Burkholderia pseudomallei; assay: Antimicrobial activity against Burkholderia pseudomallei KHW in presence of 31.3 uM promazine; format: functional
[11] = tested on: Burkholderia pseudomallei; assay: Antimicrobial activity against Burkholderia pseudomallei KHW in presence of 15.6 uM promazine; format: functional
[12] = tested on: Burkholderia pseudomallei; assay: Antimicrobial activity against Burkholderia pseudomallei KHW in presence of 7.8 uM promazine; format: functional
[13] = tested on: Burkholderia pseudomallei; assay: Antimicrobial activity against Burkholderia pseudomallei KHW in presence of 3.9 uM promazine; format: functional
[14] = tested on: Burkholderia pseudomallei; assay: Antimicrobial activity against Burkholderia pseudomallei KHW in presence of 1000 uM omeprazole; format: functional
[15] = tested on: Burkholderia pseudomallei; assay: Antimicrobial activity against Burkholderia pseudomallei KHW in presence of 500 uM omeprazole; format: functional
[16] = tested on: Burkholderia pseudomallei; assay: Antimicrobial activity against Burkholderia pseudomallei KHW in presence of 250 uM omeprazole; format: functional
[17] = tested on: Burkholderia pseudomallei; assay: Antimicrobial activity against Burkholderia pseudomallei KHW in presence of 125 uM omeprazole; format: functional
[18] = tested on: Burkholderia pseudomallei; assay: Antimicrobial activity against Burkholderia pseudomallei KHW in presence of 62.5 uM omeprazole; format: functional
[19] = tested on: Burkholderia pseudomallei; assay: Antimicrobial activity against Burkholderia pseudomallei KHW in presence of 31.3 uM omeprazole; format: functional
[20] = tested on: Burkholderia pseudomallei; assay: Antimicrobial activity against Burkholderia pseudomallei KHW in presence of 7.8 uM omeprazole; format: functional
[21] = tested on: Burkholderia pseudomallei; assay: Antimicrobial activity against Burkholderia pseudomallei KHW in presence of 3.9 uM omeprazole; format: functional
[22] = tested on: Burkholderia pseudomallei; assay: Attenuation of A549 cell invasion by Burkholderia pseudomallei KHW at 8 ug/ml in presence of 250 uM prochlorperazine; format: functional, organism-based
[23] = tested on: Burkholderia pseudomallei; assay: Attenuation of THP1 cell invasion by Burkholderia pseudomallei KHW at 8 ug/ml in presence of 250 uM prochlorperazine; format: functional, organism-based; settings: THP-1
[24] = tested on: Burkholderia pseudomallei; assay: Attenuation of A549 cell invasion by Burkholderia pseudomallei KHW at 8 ug/ml in presence of 500 uM chlorpromazine; format: functional, organism-based
[25] = tested on: Burkholderia pseudomallei; assay: Attenuation of THP1 cell invasion by Burkholderia pseudomallei KHW at 8 ug/ml in presence of 500 uM chlorpromazine; format: functional, organism-based; settings: THP-1
[26] = tested on: Burkholderia pseudomallei; assay: Attenuation of A549 cell invasion by Burkholderia pseudomallei KHW at 128 ug/ml; format: functional, organism-based
[27] = tested on: Burkholderia pseudomallei; assay: Attenuation of THP1 cell invasion by Burkholderia pseudomallei KHW at 128 ug/ml; format: functional, organism-based; settings: THP-1
[28] = tested on: Burkholderia pseudomallei; assay: Antimicrobial activity against Burkholderia pseudomallei KHW in presence of 1000 uM chlorpromazine; format: functional
[29] = tested on: Burkholderia pseudomallei; assay: Antimicrobial activity against Burkholderia pseudomallei KHW; format: functional
[30] = tested on: Burkholderia pseudomallei; assay: Antimicrobial activity against Burkholderia pseudomallei KHW in presence of 1000 uM prochlorperazine; format: functional
[31] = tested on: Burkholderia pseudomallei; assay: Antimicrobial activity against Burkholderia pseudomallei KHW in presence of 500 uM prochlorperazine; format: functional
[32] = tested on: Burkholderia pseudomallei; assay: Antimicrobial activity against Burkholderia pseudomallei KHW in presence of 250 uM prochlorperazine; format: functional
[33] = tested on: Burkholderia pseudomallei; assay: Antimicrobial activity against Burkholderia pseudomallei KHW in presence of 500 uM chlorpromazine; format: functional
[34] = tested on: Burkholderia pseudomallei; assay: Antimicrobial activity against Burkholderia pseudomallei KHW in presence of 125 uM chlorpromazine; format: functional
[35] = tested on: Burkholderia pseudomallei; assay: Antimicrobial activity against Burkholderia pseudomallei KHW in presence of 62.5 uM chlorpromazine; format: functional
[36] = tested on: Burkholderia pseudomallei; assay: Antimicrobial activity against Burkholderia pseudomallei KHW in presence of 31.3 uM chlorpromazine; format: functional
[37] = tested on: Burkholderia pseudomallei; assay: Antimicrobial activity against Burkholderia pseudomallei KHW in presence of 15.6 uM chlorpromazine; format: functional
[38] = tested on: Burkholderia pseudomallei; assay: Antimicrobial activity against Burkholderia pseudomallei KHW in presence of 7.8 uM chlorpromazine; format: functional
[39] = tested on: Burkholderia pseudomallei; assay: Antimicrobial activity against Burkholderia pseudomallei KHW in presence of 3.9 uM chlorpromazine; format: functional
[40] = tested on: Burkholderia pseudomallei; assay: Attenuation of A549 cell invasion by Burkholderia pseudomallei KHW at 8 ug/ml; format: functional, organism-based
[41] = tested on: Burkholderia pseudomallei; assay: Attenuation of THP1 cell invasion by Burkholderia pseudomallei KHW at 8 ug/ml; format: functional, organism-based; settings: THP-1
[42] = tested on: Burkholderia pseudomallei; assay: Attenuation of Burkholderia pseudomallei KHW cytotoxicity in A549 cells at 8 ug/ml in presence of 250 uM prochlorperazine; format: functional, organism-based
[43] = tested on: Burkholderia pseudomallei; assay: Attenuation of Burkholderia pseudomallei KHW cytotoxicity in THP1 cells at 8 ug/ml in presence of 250 uM prochlorperazine; format: functional, organism-based; settings: THP-1
[44] = tested on: Burkholderia pseudomallei; assay: Attenuation of Burkholderia pseudomallei KHW cytotoxicity in A549 cells at 8 ug/ml in presence of 500 uM chlorpromazine; format: functional, organism-based
[45] = tested on: Burkholderia pseudomallei; assay: Attenuation of Burkholderia pseudomallei KHW cytotoxicity in THP1 cells at 8 ug/ml in presence of 500 uM chlorpromazine; format: functional, organism-based; settings: THP-1
[46] = tested on: Burkholderia pseudomallei; assay: Attenuation of Burkholderia pseudomallei KHW cytotoxicity in A549 cells at 128 ug/ml; format: functional, organism-based
[47] = tested on: Burkholderia pseudomallei; assay: Attenuation of Burkholderia pseudomallei KHW cytotoxicity in THP1 cells at 128 ug/ml; format: functional, organism-based; settings: THP-1
[48] = tested on: Burkholderia pseudomallei; assay: Antimicrobial activity against Burkholderia pseudomallei KHW in presence of 500 uM promazine; format: functional
[49] = tested on: Burkholderia pseudomallei; assay: Antimicrobial activity against Burkholderia pseudomallei KHW in presence of 125 uM prochlorperazine; format: functional
[50] = tested on: Burkholderia pseudomallei; assay: Antimicrobial activity against Burkholderia pseudomallei KHW in presence of 62.5 uM prochlorperazine; format: functional
[51] = tested on: Burkholderia pseudomallei; assay: Antimicrobial activity against Burkholderia pseudomallei KHW in presence of 250 uM chlorpromazine; format: functional

## CC[C@H]1OC(=O)[C@H](C)[C@@H](O[C@H]2C[C@@](C)(OC)[C@@H](O)[C@H](C)O2)[C@H](C)[C@@H](O[C@@H]2O[C@H](C)C[C@H](N(C)C)[C@H]2O)[C@](C)(O)C[C@@H](C)C(=O)[C@H](C)[C@@H](O)[C@]1(C)O [ERYTHROMYCIN]
[1]
  MIC: 128 µg/mL
[2]
  MIC: 64 µg/mL
[3]
  MIC: 64 µg/mL
[4]
  MIC: 128 µg/mL
[5]
  MIC: 128 µg/mL
[6]
  MIC: < 0.25 µg/mL
[7]
  MIC: 64 µg/mL
[8]
  MIC: 128 µg/mL
[9]
  MIC: 128 µg/mL
[10]
  MIC: 128 µg/mL
[11]
  MIC: 128 µg/mL
[12]
  MIC: 128 µg/mL
[13]
  MIC: 128 µg/mL
[14]
  MIC: < 0.25 µg/mL
[15]
  MIC: 128 µg/mL
[16]
  MIC: 128 µg/mL
[17]
  MIC: 128 µg/mL
[18]
  MIC: 128 µg/mL
[19]
  MIC: 128 µg/mL
[20]
  MIC: 128 µg/mL
[21]
  MIC: 128 µg/mL
[22]
  Activity: Active
[23]
  Activity: Active
[24]
  Activity: Active
[25]
  Activity: Active
[26]
  Activity: Active
[27]
  Activity: Active
[28]
  MIC: < 0.25 µg/mL
[29]
  MIC: 128 µg/mL (≈ 174 µM)
[30]
  MIC: 8 µg/mL
[31]
  MIC: 8 µg/mL
[32]
  MIC: 8 µg/mL
[33]
  MIC: 8 µg/mL
[34]
  MIC: 128 µg/mL
[35]
  MIC: 128 µg/mL
[36]
  MIC: 128 µg/mL
[37]
  MIC: 128 µg/mL
[38]
  MIC: 128 µg/mL
[39]
  MIC: 128 µg/mL
[40]
  Activity: inactive
[41]
  Activity: inactive
[42]
  Activity: Active
[43]
  Activity: Active
[44]
  Activity: Active
[45]
  Activity: Active
[46]
  Activity: Active
[47]
  Activity: Active

## CC[C@H]1OC(=O)[C@H](C)[C@@H](O[C@H]2C[C@@](C)(OC)[C@@H](O)[C@H](C)O2)[C@H](C)[C@@H](O[C@@H]2O[C@H](C)C[C@H](N(C)C)[C@H]2O)[C@](C)(O)C[C@@H](C)CN(C)[C@H](C)[C@@H](O)[C@]1(C)O [AZITHROMYCIN]
[1]
  MIC: 32 µg/mL
[2]
  MIC: 32 µg/mL
[3]
  MIC: 32 µg/mL
[4]
  MIC: 32 µg/mL
[5]
  MIC: 32 µg/mL
[6]
  MIC: < 0.25 µg/mL
[48]
  MIC: 16 µg/mL
[7]
  MIC: 32 µg/mL
[8]
  MIC: 32 µg/mL
[9]
  MIC: 32 µg/mL
[10]
  MIC: 32 µg/mL
[11]
  MIC: 32 µg/mL
[12]
  MIC: 32 µg/mL
[13]
  MIC: 32 µg/mL
[14]
  MIC: 16 µg/mL
[15]
  MIC: 16 µg/mL
[16]
  MIC: 32 µg/mL
[17]
  MIC: 32 µg/mL
[18]
  MIC: 32 µg/mL
[19]
  MIC: 32 µg/mL
[20]
  MIC: 32 µg/mL
[21]
  MIC: 32 µg/mL
[28]
  MIC: < 0.25 µg/mL
[29]
  MIC: 32 µg/mL (≈ 42.7 µM)
[30]
  MIC: < 0.25 µg/mL
[31]
  MIC: < 0.25 µg/mL
[32]
  MIC: < 0.25 µg/mL
[49]
  MIC: 16 µg/mL
[50]
  MIC: 32 µg/mL
[33]
  MIC: 8 µg/mL
[51]
  MIC: 16 µg/mL
[34]
  MIC: 16 µg/mL
[35]
  MIC: 32 µg/mL
[36]
  MIC: 32 µg/mL
[37]
  MIC: 32 µg/mL
[38]
  MIC: 32 µg/mL
[39]
  MIC: 32 µg/mL

## CN[C@@H]1[C@H](O[C@H]2[C@H](O[C@H]3[C@H](O)[C@@H](O)[C@H](N=C(N)N)[C@@H](O)[C@@H]3N=C(N)N)O[C@@H](C)[C@]2(O)C=O)O[C@@H](CO)[C@H](O)[C@H]1O [STREPTOMYCIN]
[1]
  MIC: 1020 µg/mL
[2]
  MIC: 1020 µg/mL
[3]
  MIC: 1020 µg/mL
[4]
  MIC: 1020 µg/mL
[5]
  MIC: 1020 µg/mL
[6]
  MIC: 0.5 µg/mL
[48]
  MIC: 516 µg/mL
[7]
  MIC: 1020 µg/mL
[8]
  MIC: 1020 µg/mL
[9]
  MIC: 1020 µg/mL
[10]
  MIC: 1020 µg/mL
[11]
  MIC: 1020 µg/mL
[12]
  MIC: 1020 µg/mL
[13]
  MIC: 1020 µg/mL
[14]
  MIC: < 0.25 µg/mL
[15]
  MIC: 1020 µg/mL
[16]
  MIC: 1020 µg/mL
[17]
  MIC: 1020 µg/mL
[18]
  MIC: 1020 µg/mL
[19]
  MIC: 1020 µg/mL
[20]
  MIC: 1020 µg/mL
[21]
  MIC: 1020 µg/mL
[28]
  MIC: < 0.25 µg/mL
[29]
  MIC: 1020 µg/mL (≈ 1760 µM)
[30]
  MIC: 256 µg/mL
[31]
  MIC: 256 µg/mL
[32]
  MIC: 512 µg/mL
[49]
  MIC: 1020 µg/mL
[50]
  MIC: 1020 µg/mL
[33]
  MIC: < 0.25 µg/mL
[51]
  MIC: 1020 µg/mL
[34]
  MIC: 1020 µg/mL
[35]
  MIC: 1020 µg/mL
[36]
  MIC: 1020 µg/mL
[37]
  MIC: 1020 µg/mL
[38]
  MIC: 1020 µg/mL
[39]
  MIC: 1020 µg/mL
